In PubChem BioAssay (NCI):
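All cell lines were grown in 96-well plates and treated with compound for 48 hours. TGI denotes the concentration required for complete inhibition of growth.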

What was measured:
Assay in all cases: NCI anticancer screen, dose series, 48 h
786-0 renal = tested on: 786-0 renal
A498 renal = tested on: A498 renal
A549 NSCLC = tested on: A549 NSCLC
ACHN renal = tested on: ACHN renal
CAKI-1 renal = tested on: CAKI-1 renal
CCRF-CEM leukemia = tested on: CCRF-CEM leukemia
COLO 205 colon = tested on: COLO 205 colon
DLD-1 colon = tested on: DLD-1 colon
DMS 114 small cell lung = tested on: DMS 114 small cell lung
DMS 273 small cell lung = tested on: DMS 273 small cell lung
EKVX NSCLC = tested on: EKVX NSCLC
HCC-2998 colon = tested on: HCC-2998 colon
HCT-116 colon = tested on: HCT-116 colon
HCT-15 colon = tested on: HCT-15 colon
HL-60(TB) leukemia = tested on: HL-60(TB) leukemia
HOP-18 NSCLC = tested on: HOP-18 NSCLC
HOP-62 NSCLC = tested on: HOP-62 NSCLC
HOP-92 NSCLC = tested on: HOP-92 NSCLC
HT29 colon = tested on: HT29 colon
IGROV1 ovarian = tested on: IGROV1 ovarian
K-562 leukemia = tested on: K-562 leukemia
KM12 colon = tested on: KM12 colon
LOX IMVI melanoma = tested on: LOX IMVI melanoma
M14 melanoma = tested on: M14 melanoma
M19-MEL melanoma = tested on: M19-MEL melanoma
MOLT-4 leukemia = tested on: MOLT-4 leukemia
NCI-H226 lung = tested on: NCI-H226 lung
NCI-H23 lung = tested on: NCI-H23 lung
NCI-H460 lung = tested on: NCI-H460 lung
OVCAR-3 ovarian = tested on: OVCAR-3 ovarian
OVCAR-4 ovarian = tested on: OVCAR-4 ovarian
OVCAR-5 ovarian = tested on: OVCAR-5 ovarian
OVCAR-8 ovarian = tested on: OVCAR-8 ovarian
RXF 393 renal = tested on: RXF 393 renal
RXF-631 renal = tested on: RXF-631 renal
SF-268 CNS = tested on: SF-268 CNS
SF-295 CNS = tested on: SF-295 CNS
SF-539 CNS = tested on: SF-539 CNS
SK-MEL-2 melanoma = tested on: SK-MEL-2 melanoma
SK-MEL-28 melanoma = tested on: SK-MEL-28 melanoma
SK-MEL-5 melanoma = tested on: SK-MEL-5 melanoma
SK-OV-3 ovarian = tested on: SK-OV-3 ovarian
SN12C renal = tested on: SN12C renal
SNB-19 CNS = tested on: SNB-19 CNS
SNB-75 CNS = tested on: SNB-75 CNS
SNB-78 CNS = tested on: SNB-78 CNS
SW-620 colon = tested on: SW-620 colon
TK-10 renal = tested on: TK-10 renal
U251 CNS = tested on: U251 CNS
UACC-257 melanoma = tested on: UACC-257 melanoma
UACC-62 melanoma = tested on: UACC-62 melanoma
UO-31 renal = tested on: UO-31 renal
KM20L2 colon = tested on: KM20L2 colon
LXFL 529 NSCLC = tested on: LXFL 529 NSCLC
MALME-3M melanoma = tested on: MALME-3M melanoma
NCI-H522 lung = tested on: NCI-H522 lung
RPMI-8226 leukemia = tested on: RPMI-8226 leukemia
XF 498 CNS = tested on: XF 498 CNS
SR leukemia = tested on: SR leukemia

Cc1ccc(-c2nc3c(C(=O)NCCN(C)C)cccc3[nH]2)cc1
TGI (786-0 renal): > 100 µM
TGI (A498 renal): 27.8 µM
TGI (A549 NSCLC): 34.5 µM
TGI (ACHN renal): 28.9 µM
TGI (CAKI-1 renal): > 100 µM
TGI (CCRF-CEM leukemia): 47.4 µM
TGI (COLO 205 colon): 20.4 µM
TGI (DLD-1 colon): 73.2 µM
TGI (DMS 114 small cell lung): 26.6 µM
TGI (DMS 273 small cell lung): 27.1 µM
TGI (EKVX NSCLC): 69.5 µM
TGI (HCC-2998 colon): 29.4 µM
TGI (HCT-116 colon): 20.1 µM
TGI (HCT-15 colon): 58.2 µM
TGI (HL-60(TB) leukemia): 34.2 µM
TGI (HOP-18 NSCLC): 51.5 µM
TGI (HOP-62 NSCLC): 36.1 µM
TGI (HOP-92 NSCLC): 32.4 µM
TGI (HT29 colon): 80.1 µM
TGI (IGROV1 ovarian): 41.9 µM
TGI (K-562 leukemia): 50.5 µM
TGI (KM12 colon): > 100 µM
TGI (LOX IMVI melanoma): 24.6 µM
TGI (M14 melanoma): 29.2 µM
TGI (M19-MEL melanoma): 29.7 µM
TGI (MOLT-4 leukemia): 18.5 µM
TGI (NCI-H226 lung): 31.7 µM
TGI (NCI-H23 lung): 30.3 µM
TGI (NCI-H460 lung): 21.1 µM
TGI (OVCAR-3 ovarian): 86.7 µM
TGI (OVCAR-4 ovarian): 85.3 µM
TGI (OVCAR-5 ovarian): 45.2 µM
TGI (OVCAR-8 ovarian): 78.3 µM
TGI (RXF 393 renal): 24.1 µM
TGI (RXF-631 renal): 31 µM
TGI (SF-268 CNS): 48.9 µM
TGI (SF-295 CNS): 53.7 µM
TGI (SF-539 CNS): 23 µM
TGI (SK-MEL-2 melanoma): 32.8 µM
TGI (SK-MEL-28 melanoma): 32.4 µM
TGI (SK-MEL-5 melanoma): 26.6 µM
TGI (SK-OV-3 ovarian): 72.8 µM
TGI (SN12C renal): 63.5 µM
TGI (SNB-19 CNS): > 100 µM
TGI (SNB-75 CNS): 52.4 µM
TGI (SNB-78 CNS): 83.3 µM
TGI (SW-620 colon): 28.6 µM
TGI (TK-10 renal): 48.9 µM
TGI (U251 CNS): 61.1 µM
TGI (UACC-257 melanoma): 27.5 µM
TGI (UACC-62 melanoma): 32.5 µM
TGI (UO-31 renal): 22.9 µM

S=P1(c2ccccc2)Nc2ccc(Cl)cc2N1 (centres undefined)
TGI (786-0 renal): > 100 µM
TGI (A498 renal): > 100 µM
TGI (A549 NSCLC): > 100 µM
TGI (ACHN renal): > 100 µM
TGI (CAKI-1 renal): > 100 µM
TGI (CCRF-CEM leukemia): > 100 µM
TGI (COLO 205 colon): 45.5 µM
TGI (DLD-1 colon): > 100 µM
TGI (DMS 114 small cell lung): > 100 µM
TGI (DMS 273 small cell lung): > 100 µM
TGI (EKVX NSCLC): > 100 µM
TGI (HCC-2998 colon): > 100 µM
TGI (HCT-15 colon): > 100 µM
TGI (HL-60(TB) leukemia): 57.5 µM
TGI (HOP-18 NSCLC): > 100 µM
TGI (HOP-62 NSCLC): > 100 µM
TGI (HOP-92 NSCLC): 71.9 µM
TGI (HT29 colon): > 100 µM
TGI (IGROV1 ovarian): > 100 µM
TGI (K-562 leukemia): > 100 µM
TGI (KM12 colon): > 100 µM
TGI (KM20L2 colon): > 100 µM
TGI (LOX IMVI melanoma): > 100 µM
TGI (LXFL 529 NSCLC): > 100 µM
TGI (M14 melanoma): 56.9 µM
TGI (M19-MEL melanoma): 67.2 µM
TGI (MALME-3M melanoma): > 100 µM
TGI (MOLT-4 leukemia): > 100 µM
TGI (NCI-H226 lung): > 100 µM
TGI (NCI-H23 lung): > 100 µM
TGI (NCI-H460 lung): > 100 µM
TGI (NCI-H522 lung): > 100 µM
TGI (OVCAR-3 ovarian): > 100 µM
TGI (OVCAR-4 ovarian): > 100 µM
TGI (OVCAR-5 ovarian): > 100 µM
TGI (RPMI-8226 leukemia): > 100 µM
TGI (RXF-631 renal): > 100 µM
TGI (SF-268 CNS): > 100 µM
TGI (SF-295 CNS): > 100 µM
TGI (SF-539 CNS): > 100 µM
TGI (SK-MEL-2 melanoma): > 100 µM
TGI (SK-MEL-28 melanoma): > 100 µM
TGI (SK-MEL-5 melanoma): > 100 µM
TGI (SK-OV-3 ovarian): > 100 µM
TGI (SNB-19 CNS): > 100 µM
TGI (SNB-78 CNS): > 100 µM
TGI (SW-620 colon): > 100 µM
TGI (TK-10 renal): > 100 µM
TGI (U251 CNS): > 100 µM
TGI (UACC-257 melanoma): > 100 µM
TGI (UACC-62 melanoma): 26.4 µM
TGI (UO-31 renal): > 100 µM
TGI (XF 498 CNS): > 100 µM

O=c1[nH]c(=O)n(C2CC(O)C(CO)O2)cc1C#Cc1cc(C(F)(F)F)cc(C(F)(F)F)c1 (centres undefined)
TGI (786-0 renal): > 100 µM
TGI (A498 renal): > 100 µM
TGI (A549 NSCLC): > 100 µM
TGI (ACHN renal): > 100 µM
TGI (CAKI-1 renal): > 100 µM
TGI (CCRF-CEM leukemia): > 100 µM
TGI (COLO 205 colon): > 42.7 µM
TGI (DLD-1 colon): > 100 µM
TGI (DMS 114 small cell lung): > 100 µM
TGI (DMS 273 small cell lung): > 93.6 µM
TGI (EKVX NSCLC): > 100 µM
TGI (HCC-2998 colon): > 100 µM
TGI (HCT-116 colon): > 100 µM
TGI (HCT-15 colon): > 100 µM
TGI (HL-60(TB) leukemia): > 100 µM
TGI (HOP-18 NSCLC): > 100 µM
TGI (HOP-62 NSCLC): > 100 µM
TGI (HOP-92 NSCLC): > 100 µM
TGI (HT29 colon): > 51.9 µM
TGI (IGROV1 ovarian): > 100 µM
TGI (K-562 leukemia): > 100 µM
TGI (KM12 colon): > 100 µM
TGI (KM20L2 colon): > 100 µM
TGI (LOX IMVI melanoma): > 45.9 µM
TGI (LXFL 529 NSCLC): > 100 µM
TGI (M14 melanoma): > 46.5 µM
TGI (M19-MEL melanoma): > 74 µM
TGI (MALME-3M melanoma): > 100 µM
TGI (MOLT-4 leukemia): > 100 µM
TGI (NCI-H226 lung): > 100 µM
TGI (NCI-H23 lung): > 89.3 µM
TGI (NCI-H460 lung): > 100 µM
TGI (NCI-H522 lung): > 81.5 µM
TGI (OVCAR-3 ovarian): > 100 µM
TGI (OVCAR-4 ovarian): > 100 µM
TGI (OVCAR-5 ovarian): > 100 µM
TGI (OVCAR-8 ovarian): > 100 µM
TGI (RPMI-8226 leukemia): > 100 µM
TGI (RXF 393 renal): 39 µM
TGI (RXF-631 renal): > 100 µM
TGI (SF-268 CNS): > 100 µM
TGI (SF-295 CNS): > 100 µM
TGI (SF-539 CNS): > 90.9 µM
TGI (SK-MEL-2 melanoma): > 100 µM
TGI (SK-MEL-28 melanoma): > 100 µM
TGI (SK-MEL-5 melanoma): > 55.6 µM
TGI (SK-OV-3 ovarian): > 100 µM
TGI (SN12C renal): > 100 µM
TGI (SNB-19 CNS): > 100 µM
TGI (SNB-75 CNS): > 67.1 µM
TGI (SNB-78 CNS): > 100 µM
TGI (SR leukemia): > 100 µM
TGI (SW-620 colon): > 100 µM
TGI (TK-10 renal): > 100 µM
TGI (U251 CNS): > 100 µM
TGI (UACC-257 melanoma): > 100 µM
TGI (UACC-62 melanoma): > 31.6 µM
TGI (UO-31 renal): > 100 µM
TGI (XF 498 CNS): > 86.6 µM
